≈ marks a conversion by molar mass, not a printed value.
Assays:
Format in all cases: functional
Tetranychus urticae [1] = test: Resistance ratio of LC50 for bifenazate-resistant Tetranychus urticae (two-spotted spider mite) BEL1 harboring mitochondrial P262T Cytb fixed mutation to LC50 for Tetranychus urticae GSS
Tetranychus urticae [2] = test: Resistance ratio of LC50 for bifenazate-susceptible Tetranychus urticae LS-VL (two-spotted spider mite) to LC50 for Tetranychus urticae GSS
Tetranychus urticae [3] = test: Resistance ratio of LC50 for Tetranychus urticae HOL3 (two-spotted spider mite) harboring mitochondrial P262T Cytb heteroplasmic mutation to LC50 for Tetranychus urticae GSS
Tetranychus urticae [4] = test: Toxicity against adult bifenazate-resistant Tetranychus urticae BEL1 (two-spotted spider mite) harboring mitochondrial P262T Cytb fixed mutation in compound pretreated bean leaves assessed as mortality; details: BEL-1
Tetranychus urticae [5] = test: Toxicity against adult METI-resistant Tetranychus urticae MR-VP (two-spotted spider mite) in compound pretreated bean leaves assessed as mortality
Tetranychus urticae [6] = test: Toxicity against adult Tetranychus urticae HOL2 (two-spotted spider mite) harboring mitochondrial G126S Cytb mutation in compound pretreated bean leaves assessed as mortality
Tetranychus urticae [7] = test: Resistance ratio of LC50 for bifenazate-resistant Tetranychus urticae BR-VL (two-spotted spider mite) harboring mitochondrial G126S, S141F and D161G Cytb mutation to LC50 for Tetranychus urticae GSS
Tetranychus urticae [8] = test: Toxicity against adult Tetranychus urticae WI (two-spotted spider mite) in compound pretreated bean leaves assessed as mortality
Tetranychus urticae [9] = test: Resistance ratio of LC50 for METI-resistant Tetranychus urticae MR-VP (two-spotted spider mite) to LC50 for Tetranychus urticae GSS
Tetranychus urticae [10] = test: Resistance ratio of LC50 for Tetranychus urticae HOL2 (two-spotted spider mite) harboring mitochondrial G126S Cytb mutation to LC50 for Tetranychus urticae GSS
Tetranychus urticae [11] = test: Toxicity against adult bifenazate-susceptible Tetranychus urticae LS-VL (two-spotted spider mite) in compound pretreated bean leaves assessed as mortality
Tetranychus urticae [12] = test: Resistance ratio of LC50 for Tetranychus urticae HOL1 (two-spotted spider mite) harboring mitochondrial G126S and I136T Cytb mutation to LC50 for Tetranychus urticae GSS
Tetranychus urticae [13] = test: Toxicity against adult Tetranychus urticae GSS (two-spotted spider mite) in compound pretreated bean leaves assessed as mortality
Tetranychus urticae [14] = test: Resistance ratio of LC50 for Tetranychus urticae MR-VL (two-spotted spider mite) to LC50 for Tetranychus urticae GSS
Tetranychus urticae [15] = test: Resistance ratio of LC50 for Tetranychus urticae (two-spotted spider mite) HOL4 harboring mitochondrial G126S Cytb mutation to LC50 for Tetranychus urticae GSS
Tetranychus urticae [16] = test: Toxicity against adult bifenazate-resistant Tetranychus urticae BR-VL (two-spotted spider mite) harboring mitochondrial G126S, S141F and D161G Cytb mutation in compound pretreated bean leaves assessed as mortality
Tetranychus urticae [17] = test: Resistance ratio of LC50 for Tetranychus urticae WI (two-spotted spider mite) to LC50 for Tetranychus urticae GSS
Tetranychus urticae [18] = test: Toxicity against adult Tetranychus urticae MR-VL (two-spotted spider mite) in compound pretreated bean leaves assessed as mortality
Tetranychus urticae [19] = test: Toxicity against adult Tetranychus urticae HOL1 (two-spotted spider mite) harboring mitochondrial G126S and I136T Cytb mutation in compound pretreated bean leaves assessed as mortality
Tetranychus urticae [20] = test: Toxicity against adult Tetranychus urticae HOL4 (two-spotted spider mite) harboring mitochondrial G126S Cytb mutation in compound pretreated bean leaves assessed as mortality
Tetranychus urticae [21] = test: Toxicity against adult Tetranychus urticae HOL3 (two-spotted spider mite) harboring mitochondrial P262T Cytb heteroplasmic mutation in compound pretreated bean leaves assessed as mortality
Tetranychus urticae [22] = test: Toxicity against adult Tetranychus urticae BEL1 (two-spotted spider mite) in bean leaves assessed as mortality treated 24 hr after 2000 mg/L esterase inhibitor, DEF application; details: BEL-1, 24 h
Tetranychus urticae [23] = test: Toxicity against female adult Tetranychus urticae (two-spotted spider mite) F1 progeny generated from reciprocal cross between female BR-VL and male GSS in compound pretreated bean leaves assesed as mortality
Tetranychus urticae [24] = test: Toxicity against adult Tetranychus urticae GSS (two-spotted spider mite) in bean leaves assessed as mortality treated 24 hr after 2000 mg/L GST inhibitor, DEM application
Tetranychus urticae [25] = test: Synergism ratio of LC50 for adult Tetranychus urticae GSS (two-spotted spider mite) to LC50 for adult Tetranychus urticae GSS in presence of 1000 mg/L esterase inhibitor, DEF application
Tetranychus urticae [26] = test: Toxicity against adult Tetranychus urticae GSS (two-spotted spider mite) in bean leaves assessed as mortality treated 24 hr after 1000 mg/L esterase inhibitor, DEF application
Tetranychus urticae [27] = test: Synergism ratio of LC50 for adult Tetranychus urticae GSS (two-spotted spider mite) to LC50 for adult Tetranychus urticae GSS in presence of 2000 mg/L cytochrome P450 monoxygenase inhibitor, PBO
Tetranychus urticae [28] = test: Toxicity against adult Tetranychus urticae BR-VL (two-spotted spider mite) in bean leaves assessed as mortality treated 24 hr after 2000 mg/L cytochrome P450 monoxygenase inhibitor, PBO application
Tetranychus urticae [29] = test: Synergism ratio of LC50 for adult Tetranychus urticae GSS (two-spotted spider mite) to LC50 for adult Tetranychus urticae GSS in presence of 2000 mg/L GST inhibitor, DEM application
Tetranychus urticae [30] = test: Toxicity against adult Tetranychus urticae BR-VL (two-spotted spider mite) in bean leaves assessed as mortality treated 24 hr after 2000 mg/L esterase inhibitor, DEF application
Tetranychus urticae [31] = test: Toxicity against adult Tetranychus urticae BEL1 (two-spotted spider mite) in bean leaves assessed as mortality treated 24 hr after 2000 mg/L cytochrome P450 monoxygenase inhibitor, PBO application; details: BEL-1, 24 h
Tetranychus urticae [32] = test: Toxicity against adult Tetranychus urticae BEL1 (two-spotted spider mite) in bean leaves assessed as mortality treated 24 hr after 2000 mg/L GST inhibitor, DEM application; details: BEL-1, 24 h
Tetranychus urticae [33] = test: Toxicity against female adult Tetranychus urticae (two-spotted spider mite) F1 progeny generated from reciprocal cross between female BEL1 and male GSS in compound pretreated bean leaves assesed as mortality
Tetranychus urticae [34] = test: Toxicity against adult Tetranychus urticae GSS (two-spotted spider mite) in bean leaves assessed as mortality treated 24 hr after 2000 mg/L cytochrome P450 monoxygenase inhibitor, PBO application
Tetranychus urticae [35] = test: Toxicity against adult Tetranychus urticae BR-VL (two-spotted spider mite) in bean leaves assessed as mortality treated 24 hr after 2000 mg/L GST inhibitor, DEM application
Tetranychus urticae [36] = test: Toxicity against female adult Tetranychus urticae (two-spotted spider mite) F1 progeny generated from reciprocal cross between female GSS and male BR-VL in compound pretreated bean leaves assesed as mortality
Tetranychus urticae [37] = test: Toxicity against female adult Tetranychus urticae (two-spotted spider mite) F1 progeny generated from reciprocal cross between female GSS and male BEL1 in compound pretreated bean leaves assesed as mortality

Row | Structure (SMILES) | RatioLC50 (Tetranychus urticae [1]) | RatioLC50 (Tetranychus urticae [2]) | RatioLC50 (Tetranychus urticae [3]) | LC50 (Tetranychus urticae [4]) [µg/mL] | LC50 (Tetranychus urticae [5]) [µg/mL] | LC50 (Tetranychus urticae [6]) [µg/mL] | RatioLC50 (Tetranychus urticae [7]) | LC50 (Tetranychus urticae [8]) [µg/mL] | RatioLC50 (Tetranychus urticae [9]) | RatioLC50 (Tetranychus urticae [10]) | LC50 (Tetranychus urticae [11]) [µg/mL] | RatioLC50 (Tetranychus urticae [12]) | LC50 (Tetranychus urticae [13]) [µg/mL] | RatioLC50 (Tetranychus urticae [14]) | RatioLC50 (Tetranychus urticae [15]) | LC50 (Tetranychus urticae [16]) [µg/mL] | RatioLC50 (Tetranychus urticae [17]) | LC50 (Tetranychus urticae [18]) [µg/mL] | LC50 (Tetranychus urticae [19]) [µg/mL] | LC50 (Tetranychus urticae [20]) [µg/mL] | also measured
1 | COc1ccc(-c2ccccc2)cc1NNC(=O)OC(C)C [BIFENAZATE] | >2780 | 0.4 | >2780 | > 10000 | 7.3 (≈ 24.3 µM) | 43.4 (≈ 144 µM) | >2780 | 8.7 (≈ 29 µM) | 2 | 12.1 | 1.6 (≈ 5.33 µM) | >2780 | 3.6 (≈ 12 µM) | 2.9 | >2780 | > 10000 | 2.4 | 10.5 (≈ 35 µM) | > 10000 | > 10000 | LC50 (Tetranychus urticae [21]): > 10000 µg/mL
2 | CO/C=C(/C(=O)OC)c1ccccc1COc1cc(C(F)(F)F)nc(OC(C)C)n1 [FLUACRYPYRIM] | >1515 | >1515 | >1515 | > 10000 | > 10000 | > 10000 | >1515 | 3 (≈ 7.04 µM) | >1515 | >1515 | > 10000 | >1515 | 6.6 (≈ 15.5 µM) | 4.4 | >1515 | > 10000 | 0.5 | 28.8 (≈ 67.5 µM) | > 10000 | > 10000 | LC50 (Tetranychus urticae [22]): > 10000 µg/mL; LC50 (Tetranychus urticae [23]): > 10000 µg/mL; LC50 (Tetranychus urticae [24]): 12.4 µg/mL (≈ 29.1 µM); RatioLC50 (Tetranychus urticae [25]): 1.6; LC50 (Tetranychus urticae [26]): 4.2 µg/mL (≈ 9.85 µM); RatioLC50 (Tetranychus urticae [27]): 1.7; LC50 (Tetranychus urticae [28]): > 10000 µg/mL; RatioLC50 (Tetranychus urticae [29]): 0.5; LC50 (Tetranychus urticae [30]): > 10000 µg/mL; LC50 (Tetranychus urticae [31]): > 10000 µg/mL; LC50 (Tetranychus urticae [32]): > 10000 µg/mL; LC50 (Tetranychus urticae [33]): > 10000 µg/mL; LC50 (Tetranychus urticae [34]): 3.8 µg/mL (≈ 8.91 µM); LC50 (Tetranychus urticae [35]): > 10000 µg/mL; LC50 (Tetranychus urticae [36]): > 10000 µg/mL; LC50 (Tetranychus urticae [37]): > 10000 µg/mL; LC50 (Tetranychus urticae [21]): > 10000 µg/mL

Reference: ChEMBL document CHEMBL3046146, “Mutations in the mitochondrial cytochrome b of Tetranychus urticae Koch (Acari: Tetranychidae) confer cross-resistance between bifenazate and acequinocyl” (2009)
